# Assay results as given in patent US10294207B2, “Pyrazole derivatives as TNIK, IKKϵ and TBK1 inhibitor and pharmaceutical composition comprising same” (GREEN CROSS CORPORATION, priority 2015, dated 2019).
# Columns and labels:
# TBK1 = molecular target: T1, TBK1 (Homo sapiens, UniProt Q9UHD2); experiment: TBK1 inhibition, ADP-Glo Kinase Assay; format: biochemical; settings: luminometer
# T1 construct: purchased Promega V3991
# T1 sequence (Q9UHD2 1-729): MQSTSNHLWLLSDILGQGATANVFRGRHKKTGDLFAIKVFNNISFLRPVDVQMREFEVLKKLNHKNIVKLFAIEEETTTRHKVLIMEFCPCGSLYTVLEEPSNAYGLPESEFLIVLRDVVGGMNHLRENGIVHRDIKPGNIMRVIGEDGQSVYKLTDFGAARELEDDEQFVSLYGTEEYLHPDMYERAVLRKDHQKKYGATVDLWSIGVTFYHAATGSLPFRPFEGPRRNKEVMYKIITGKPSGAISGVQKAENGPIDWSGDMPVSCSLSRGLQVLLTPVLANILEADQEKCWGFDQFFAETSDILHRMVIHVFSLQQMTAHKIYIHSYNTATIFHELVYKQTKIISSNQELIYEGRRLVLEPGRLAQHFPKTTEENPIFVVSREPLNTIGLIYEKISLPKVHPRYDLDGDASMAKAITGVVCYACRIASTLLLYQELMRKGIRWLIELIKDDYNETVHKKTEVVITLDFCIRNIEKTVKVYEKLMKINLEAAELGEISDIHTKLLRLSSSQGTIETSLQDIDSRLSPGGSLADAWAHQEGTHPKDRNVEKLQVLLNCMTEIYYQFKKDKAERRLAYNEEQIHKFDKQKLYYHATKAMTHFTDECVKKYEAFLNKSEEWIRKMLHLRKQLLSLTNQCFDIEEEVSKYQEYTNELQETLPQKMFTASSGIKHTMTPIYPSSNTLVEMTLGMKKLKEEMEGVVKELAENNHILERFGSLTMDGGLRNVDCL
# Method: (§1) Inhibition activities on TNIK, IKKε and TBK1 were evaluated using the compounds of Examples 1 to 254.
# (§2) The inhibition activities on TNIK, IKKε and TBK1 were measured by a luminometer, TNIK/IKKε/TBK1 Kinase Enzyme System (Promega, Ca# V4158; Invitrogen, PR8031B, Promega, Ca# V3991) and ADP-Glo Kinase Assay using ADP-Glo™ Kinase Analysis Kit (Promega, Ca# V9101) and a kinase reaction buffer [40 mM Tris(pH 7.5), 20 mM MgCl2, 0.1 mg/mL BSA] in accordance with the manufacturer's protocol.
# IKKε = molecular target: T2, IKKε (Homo sapiens, UniProt Q14164); experiment: IKKε inhibition, ADP-Glo Kinase Assay; format: biochemical; settings: luminometer
# T2 construct: purchased Invitrogen PR8031B
# T2 sequence (Q14164 1-716): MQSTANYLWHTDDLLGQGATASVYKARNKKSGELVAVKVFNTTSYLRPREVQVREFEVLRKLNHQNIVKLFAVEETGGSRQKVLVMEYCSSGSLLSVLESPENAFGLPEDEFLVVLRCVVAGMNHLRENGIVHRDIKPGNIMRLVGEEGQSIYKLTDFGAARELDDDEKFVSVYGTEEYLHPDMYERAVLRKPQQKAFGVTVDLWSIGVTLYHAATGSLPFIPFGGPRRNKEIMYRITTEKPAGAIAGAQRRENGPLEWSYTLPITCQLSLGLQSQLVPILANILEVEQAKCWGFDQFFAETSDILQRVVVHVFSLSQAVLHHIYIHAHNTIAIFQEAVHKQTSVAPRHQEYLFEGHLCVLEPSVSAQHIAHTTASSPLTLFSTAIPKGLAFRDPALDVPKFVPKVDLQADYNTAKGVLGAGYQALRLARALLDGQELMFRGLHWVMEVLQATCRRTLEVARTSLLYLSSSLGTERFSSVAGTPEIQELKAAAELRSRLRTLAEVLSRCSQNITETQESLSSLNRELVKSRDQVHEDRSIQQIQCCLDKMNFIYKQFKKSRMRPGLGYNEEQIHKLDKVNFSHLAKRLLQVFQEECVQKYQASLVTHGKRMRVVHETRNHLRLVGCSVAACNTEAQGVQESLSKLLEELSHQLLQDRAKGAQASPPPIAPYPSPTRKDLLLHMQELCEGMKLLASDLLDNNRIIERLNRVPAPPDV
# Method: as §1, §2
IC50 (TBK1),IC50 (IKKε),Compound
0.0058 µM,0.037 µM,"O=C(NCc1ccco1)c1ccc2[nH]nc(NC(=O)c3ccc(N4CCOCC4)cc3)c2c1 [Example 50, N-(Furan-2-ylmethyl)-3-(4-morpholinobenzamido)-1H-indazole-5-carboxamide]"
0.0081 µM,0.064 µM,"CN1CCN(c2ccc(C(=O)Nc3n[nH]c4ccc(C(=O)NCc5ccco5)cc34)cc2)CC1 [Example 51, N-(Furan-2-ylmethyl)-3-(4-(4-methylpiperazin-1-yl)benzamido)-1H-indazole-5-carboxamide]"
0.014 µM,> 10 µM,"CC(NC(=O)c1ccc2[nH]nc(NC(=O)c3ccc(N4CCOCC4)cc3)c2c1)c1cccnc1 (centres unmarked) [Example 52, 3-(4-Morpholinobenzamido)-N-(1-(pyridin-3-yl)ethyl)-1H-indazole-5-carboxamide]"
0.021 µM,> 10 µM,"CC(NC(=O)c1ccc2[nH]nc(NC(=O)c3ccc(N4CCN(C)CC4)cc3)c2c1)c1cccnc1 (centres unmarked) [Example 53, 3-(4-(4-Methylpiperazin-1-yl)benzamido)-N-(1-(pyridin-3-yl)ethyl)-1H-indazole-5-carboxamide]"
0.00036 µM,0.0031 µM,"CCC(NC(=O)c1ccc2[nH]nc(NC(=O)c3ccc(N4CCOCC4)cc3)c2c1)c1cccs1 (centres unmarked) [Example 54, 3-(4-Morpholinobenzamido)-N-(1-(thiophen-2-yl)propyl)-1H-indazole-5-carboxamide]"
0.00093 µM,0.0027 µM,"CCC(NC(=O)c1ccc2[nH]nc(NC(=O)c3ccc(N4CCN(C)CC4)cc3)c2c1)c1cccs1 (centres unmarked) [Example 55, 3-(4-(4-Methylpiperazin-1-yl)benzamido)-N-(1-(thiophen-2-yl)propyl)-1H-indazole-5-carboxamide]"
0.0033 µM,0.1 µM,"O=C(NCc1cccnc1)c1ccc2[nH]nc(NC(=O)c3ccc(N4CCOCC4)cc3)c2c1 [Example 56, 3-(4-Morpholinobenzamido)-N-(pyridin-3-ylmethyl)-1H-indazole-5-carboxamide 2,2,2-trifluoroacetate]"
0.0012 µM,0.14 µM,"CN1CCN(c2ccc(C(=O)Nc3n[nH]c4ccc(C(=O)NCc5cccnc5)cc34)cc2)CC1 [Example 57, 3-(4-(4-Methylpiperazin-1-yl)benzamido)-N-(pyridin-3-ylmethyl)-1H-indazole-5-carboxamide bis(2,2,2-trifluoroacetate)]"
0.039 µM,0.13 µM,"CCCC(NC(=O)c1ccc2[nH]nc(NC(=O)c3ccc(N4CCOCC4)cc3)c2c1)c1cccs1 (centres unmarked) [Example 58, 3-(4-Morpholinobenzamido)-N-(1-(thiophen-2-yl)butyl)-1H-indazole-5-carboxamide]"
0.032 µM,0.11 µM,"CCCC(NC(=O)c1ccc2[nH]nc(NC(=O)c3ccc(N4CCN(C)CC4)cc3)c2c1)c1cccs1 (centres unmarked) [Example 59, 3-(4-(4-Methylpiperazin-1-yl)benzamido)-N-(1-(thiophen-2-yl)butyl)-1H-indazole-5-carboxamide]"
0.034 µM,0.28 µM,"Cc1ccc(CNC(=O)c2ccc3[nH]nc(NC(=O)c4ccc(N5CCOCC5)cc4)c3c2)s1 [Example 60, N-((5-Methylthiophen-2-yl)methyl)-3-(4-morpholinobenzamido)-1H-indazole-5-carboxamide]"
0.056 µM,0.23 µM,"Cc1ccc(CNC(=O)c2ccc3[nH]nc(NC(=O)c4ccc(N5CCN(C)CC5)cc4)c3c2)s1 [Example 61, 3-(4-(4-Methylpiperazin-1-yl)benzamido)-N-((5-methylthiophen-2-yl)methyl)-1H-indazole-5-carboxamide]"
0.011 µM,0.032 µM,"CC(C)(NC(=O)c1ccc2[nH]nc(NC(=O)c3ccc(N4CCOCC4)cc3)c2c1)c1ccccc1 [Example 62, 3-(4-Morpholinobenzamido)-N-(2-phenylpropan-2-yl)-1H-indazole-5-carboxamide]"
0.0094 µM,0.036 µM,"CN1CCN(c2ccc(C(=O)Nc3n[nH]c4ccc(C(=O)NC(C)(C)c5ccccc5)cc34)cc2)CC1 [Example 63, 3-(4-(4-Methylpiperazin-1-yl)benzamido)-N-(2-phenylpropan-2-yl)-1H-indazole-5-carboxamide]"
0.76 µM,1.95 µM,"O=C(NCc1ccc(C(F)(F)F)cc1)c1ccc2[nH]nc(NC(=O)c3ccc(N4CCOCC4)cc3)c2c1 [Example 65, 3-(4-Morpholinobenzamido)-N-(4-(trifluoromethyl)benzyl)-1H-indazole-5-carboxamide]"
0.98 µM,3.19 µM,"CN1CCN(c2ccc(C(=O)Nc3n[nH]c4ccc(C(=O)NCc5ccc(C(F)(F)F)cc5)cc34)cc2)CC1 [Example 66, 3-(4-(4-Methylpiperazin-1-yl)benzamido)-N-(4-(trifluoromethyl)benzyl)-1H-indazole-5-carboxamide]"
0.003 µM,0.005 µM,"O=C(Nc1n[nH]c2ccc(C(=O)NC3(c4ccccc4)CC3)cc12)c1ccc(N2CCOCC2)cc1 [Example 67, 3-(4-Morpholinobenzamido)-N-(1-phenylcyclopropyl)-1H-indazole-5-carboxamide]"
0.0006 µM,0.0042 µM,"CN1CCN(c2ccc(C(=O)Nc3n[nH]c4ccc(C(=O)NC5(c6ccccc6)CC5)cc34)cc2)CC1 [Example 68, 3-(4-(4-Methylpiperazin-1-yl)benzamido)-N-(1-phenylcyclopropyl)-1H-indazole-5-carboxamide]"
0.38 µM,2.72 µM,"Cc1cc(CNC(=O)c2ccc3[nH]nc(NC(=O)c4ccc(N5CCOCC5)cc4)c3c2)ccn1 [Example 69, N-((2-Methylpyridin-4-yl)methyl)-3-(4-morpholinobenzamido)-1H-indazole-5-carboxamide]"
0.18 µM,1.5 µM,"Cc1cc(CNC(=O)c2ccc3[nH]nc(NC(=O)c4ccc(N5CCN(C)CC5)cc4)c3c2)ccn1 [Example 70, 3-(4-(4-Methylpiperazin-1-yl)benzamido)-N-((2-methylpyridin-4-yl)methyl)-1H-indazole-5-carboxamide]"
0.44 µM,> 10 µM,"O=C(NCc1ccc(C(F)(F)F)nc1)c1ccc2[nH]nc(NC(=O)c3ccc(N4CCOCC4)cc3)c2c1 [Example 71, 3-(4-Morpholinobenzamido)-N-((6-(trifluoromethyl)pyridin-3-yl)methyl)-1H-indazole-5-carboxamide]"
0.35 µM,1.83 µM,"CN1CCN(c2ccc(C(=O)Nc3n[nH]c4ccc(C(=O)NCc5ccc(C(F)(F)F)nc5)cc34)cc2)CC1 [Example 72, 3-(4-(4-Methylpiperazin-1-yl)benzamido)-N-((6-(trifluoromethyl)pyridin-3-yl)methyl)-1H-indazole-5-carboxamide]"
0.004 µM,0.044 µM,"Cc1cc(N2CCOCC2)ccc1C(=O)Nc1n[nH]c2ccc(C(=O)NCc3cccs3)cc12 [Example 73, 3-(2-Methyl-4-morpholinobenzamido)-N-(thiophen-2-ylmethyl)-1H-indazole-5-carboxamide]"
0.0044 µM,0.079 µM,"Cc1cc(N2CCN(C)CC2)ccc1C(=O)Nc1n[nH]c2ccc(C(=O)NCc3cccs3)cc12 [Example 74, 3-(2-Methyl-4-(4-methylpiperazin-1-yl)benzamido)-N-(thiophen-2-ylmethyl)-1H-indazole-5-carboxamide]"
0.18 µM,0.67 µM,"CN1CCN(c2ccc(C(=O)Nc3n[nH]c4ccc(C(=O)C(C(=O)O)c5cccs5)cc34)cc2)CC1 (centres unmarked) [Example 75, 3-(3-(4-(4-Methylpiperazin-1-yl)benzamido)-1H-indazol-5-yl)-3-oxo-2-(thiophen-2-yl)propanoic Acid]"
